Assay results published in patent US9696297B2, “Method for preparing an X chromosome inactivated female human neural cell” (SALK INSTITUTE FOR BIOLOGICAL STUDIES, priority 2009, dated 2017).
“Also recorded” adds a separate entry of the source.

What was measured:
iPSC-derived neurons = assay: Whole-cell patch clamp recording of spontaneous postsynaptic currents; type: cell-based, human; conditions: for EPSCs: 10-20 μM
Description: Whole-cell patch clamp recordings were performed from cells co-cultured with astrocytes after 6 weeks of differentiation. The bath was constantly perfused with fresh HEPES-buffered saline as described herein. The recording micropipettes (tip resistance 3-6 MΩ) were filled with internal solution described in the Supplemental materials. Recordings were made using Axopatch 200B amplifier (Axon Instruments). Signals were filtered at 2 kHz and sampled at 5 kHz. The whole-cell capacitance was fully compensated. The series resistance was uncompensated but monitored during the experiment by the amplitude of the capacitive current in response to a 10-mV pulse. All recordings were performed at room temperature and chemicals were purchased from Sigma. Frequency and amplitude of spontaneous postsynaptic currents were measured with the Mini Analysis Program software (Synaptosoft, Leonia, N.J.). Statistical comparisons of WT and RTT groups were made using the non-parametric Kolmogorov-Smirnov two-tailed test, with a significance criterion of p=0.05. EPSCs were blocked by CNQX or DNQX (10-20 μM) and IPSPs were inhibited by bicuculine (20 μM).

[1] = tested on: iPSC-derived neuronal networks; assay: Calcium imaging of spontaneous calcium transients in iPSC-derived neuronal networks; conditions: drug treatment, concentration not printed (FIG. 11A, 11C, 11D)
Description: Neuronal networks derived from human iPSCs were previously infected with the lentiviral vector carrying the Syn::DsRed reporter construct. Cell cultures were washed twice with sterile Krebs HepesHEPES Buffer (KHB) (10 mM HEPES, 4.2 mM NaHCO3, 10 mM dextrose, 1.18 mM MgSO4.2H2O, 1.18 mM KH2PO4, 4.69 mM KCl, 118 mM NaCl, 1.29 mM CaCl2; pH 7.3) and incubated with 0.2-0.5 μM Fluo-4AM (Molecular Probes/Invitrogen, Carlsbad, Calif.) in KHB for 40 minutes at room temperature. Excess dye was removed by washing twice with KHB and an additional 20-minute minutes incubation was done to equilibrate intracellular dye concentration and allow de-esterification. Time-lapse image sequences (200×100× magnification) of 5000 frames were acquired at 28 Hz with a region of 336×256 pixels, using a Hamamatsu ORCA-ER digital camera (Hamamatsu Photonics K.K., Hamamatsu City, Japan) with a 488 mm (FITC) filter on an Olympus IX81 inverted fluorescence confocal microscope (Olympus Optical, Tokyo, Japan). […]
ImageJ, an NIH funded open source, JAVA-based morphometric application, was used to allow manual selection of individual cells on the xy-plane of each movie using circles of 4 pixels (˜5 μm) in diameter. Each cell was considered as an individual region of interest (ROIs) and the average fluorescence intensity was calculated for each ROI in each frame using Time Series Analyzer ImageJ plugin. […]

RTT-derived neurons = assay: VGLUT1 puncta (glutamatergic synapse) quantification in RTT-iPSC-derived neurons, rescue experiments; type: cell-based, human; conditions: for VGLUT1 puncta number / glutamatergic synapse number: RTT-derived neurons carrying different MeCP2 mutations, IGF1 10 μg/mL for 1 week
WT neurons = assay: VGLUT1 puncta (glutamatergic synapse) quantification in WT-iPSC-derived control neurons; type: cell-based, human; conditions: gentamicin 400 ug/ml, 1 week
Excerpt: Female RTT and control fibroblasts were generated from explants of dermal biopsies following informed consent under protocols approved by the University of California San Diego. The Syn::EGFP or DsRed reporter vector was obtained by cloning the Synapsin-1 promoter in a lentivirus backbone. The shRNA against a target sequence on the human MeCP2 gene was cloned in the LentiLox3.7 lentivirus vector. Retrovirus vectors containing the Oct4, c-Myc, Klf4 and Sox2 human cDNAs from Yamanaka's group (Takahashi et al., 2007, Id.) were obtained from Addgene. Two days after infection, fibroblasts were plated on mitotically inactivated mouse embryonic fibroblasts (Chemicon) with hESC medium. After 2 weeks, iPSC colonies were directly transferred to feeder-free conditions on matrigel-coated dishes (BD) using mTeSRTM1 (StemCell Technologies), and passed manually. […]
Cells were briefly fixed in 4% paraformaldehyde and then permeabilized with 0.5% Triton-X100 in PBS. […] Fluorescent signals were detected using a Zeiss inverted microscope and images were processed with Photoshop CS3 (Adobe Systems). […] For synapse quantification, images were taken by a z-step of 1 μm using Biorad radiance 2100 confocal microscope. Synapse quantification was done blinded to genotype. Only VGLUT1 puncta along Map2-positive processes were counted. […]

MeCP2 = MeCP2 protein level by Western blot in RTT neurons (Q244X); type: cell-based, human; conditions: gentamicin

`N#Cc1cc2[nH]c(=O)c(=O)[nH]c2cc1[N+](=O)[O-]` [CNQX] was tested, and the EPSCs (iPSC-derived neurons) was “blocked”.

With `O=[N+]([O-])c1cc2nc(O)c(O)nc2cc1[N+](=O)[O-]` [DNQX] the EPSCs (iPSC-derived neurons) was “blocked”.

`COc1ccc(-c2ccc(=N)n(CCCC(=O)O)n2)cc1` [Gabazine] was tested, and the intracellular calcium transients [1] was “increased”.

With `CN1CCc2cc3c(cc2[C@H]1[C@@H]1OC(=O)c2c1ccc1c2OCO1)OCO3` [bicuculine] the IPSPs (iPSC-derived neurons; 20 μM) was “inhibited”.

“IGF1: IGF1 (Peprotech), candidate for pharmacological treatment of RTT” was tested, and the “VGLUT1 puncta number / glutamatergic synapse number” value (RTT-derived neurons) was “increased” and the “VGLUT1 puncta number / glutamatergic synapse number” value (RTT-derived neurons; listed as IFG1) was “above normal levels”.

With gentamicin the “rescue of RTT neurons (VGLUT1 puncta)” value (RTT-derived neurons; RTT neurons, higher gentamicin dose 400 ug/ml, 1 week) was “did not rescue”, the “glutamatergic synapse numbers (VGLUT1 puncta)” value (RTT-derived neurons; RTT-Q244X clones 3 and 4 derived neurons, lower gentamicin dose (100 ug/ml), 1 week) was “increased; also recorded: rescuing; also recorded: rescue” and the “number of VGLUT1 puncta in control neurons” value (WT neurons) was “lowered”. For the same molecule, the “WT MeCP2 protein levels” value (MeCP2; RTT neurons (Q244X), after 2 weeks (FIG. 10E)) was “increased” and the MeCP2 protein levels (MeCP2; RTT-Q244X clones 3 and 4 derived neurons, after 1 week) was “increase”.
